Assay results from US20200375958A1, “MEMBRANE ACTIVE MOLECULES” (priority 2017, published 2020).
Values joined by “and” are separate entries in the source; they are usually repeats but may differ in a detail not shown here. Equal values may be shown once. Read-outs that look alike come from different tables or passages of the source.

Tests used:
[1] = system: mouse; conditions: for Effect on the animals: 62.5 mM solution in intralipid; for Effect on the animals / Lethality to the animals: intravenous
Description: Butyric acid was dissolved in water to form an 8 M solution. 0.5 mL of the 8 M solution of butyric acid was injected subcutaneously (at the back of the neck) into the mouse.
3-hydroxybutyric acid was dissolved in water to form 1 M, 1.5 M, and 2 M solutions. 0.2 mL of a 1.5 M solution of 3-hydroxybutyric acid was injected into a tail vein of a CD-1 mouse. […] This was repeated for at least 2 more times on subsequent days.
Ethylmalonic acid was dissolved in water to form 2 M, 3 M, and 4 M solutions. 0.2 mL of a 3 M solution of ethylmalonic acid was injected into a tail vein of a mouse. […] This was repeated for at least 2 more times on subsequent days.
Ethylmalonic acid was dissolved in water to form a 4 M solution. 0.5 mL of the 4 M solution of ethylmalonic acid was injected subcutaneously into the mouse.

[2] = system: Tadpoles; assay: Tadpole anesthesia test (movement suppressed on contact with rod); assay type: in vivo
Description: Tadpoles were placed in a petri dish containing aquarium water. Four to eight tadpoles were placed in each petri dish. The aquarium water contained the specified test compound at the listed concentration. When the tadpoles stopped moving, a plastic rod was used to elicit motion once again by contact between the rod and tadpole. […] From this and the number of subjects, the percent of tadpoles in which movement was suppressed were calculated.
After 1 to 30 minutes, they were again contacted with a rod to ensure the anesthetic effect had worn off.
In some examples, subanesthetic concentrations of ethanol were added into the aquarium water. Tadpoles in which movement was prevented with exposure to a test compound and ethanol but not with exposure to a test compound alone were classified as partial anesthetics.

[3] = system: CF-1 mice; assay: Anticonvulsant test in mice: metrazol (pentylenetetrazol) tail vein infusion, time to twitch and seizure; assay type: in vivo, mouse
Description: CF-1 mice were used in this study. Number 20 PE tubing to cannulate a mouse tail vein was used. An infusion pump was used to deliver a solution at a rate of 0.34 mL/min. A hemostat was used to prevent backflow in the PE tubing before the experiment stated. To begin the experiment, the hemostat that was clamped to the PE 20 tubing was removed, the infusion of the solution was started into the tail IV of the mouse, and the timer was started.
The study reflects the time in seconds from the start of the infusion to the time of twitch and onset of seizure, or 90 seconds, whichever is sooner. When the seizure occurs, the infusion is turned off.
As a control, metrazol (pentylenetetrazol) in a 0.5% solution (5 mg/mL) in water was prepared. Pentylenetetrazol is used as a control to study seizure phenomena in and to identify compounds that may control seizure susceptibility. Solutions of 8 M butyric acid and 1.5 M 3-hydroxybutyric acid were made.
The time to twitch and time to seizure of the mouse in seconds is recorded in Tables 3-5, below.

[4] = read-out: Movement suppressed (%)
[5] = average of 9 mice, metrazol alone
[6] = individual mice, metrazol 0.5% solution infused 0.34 mL/min tail vein
[7] = average of 8 mice, 1.5 M 3-hydroxybutyric acid solution plus metrazol
[8] = individual mice, 1.5 M 3-hydroxybutyric acid solution plus metrazol
[9] = Concentration 62.5 mM in aquarium water

CCOC(=O)C(CC)(C(=O)OCC)c1ccccc1 [diethyl ethylphenylmalonate]
Effect on the animals [1]: lethargic and those loss coordination | Lethality to the animals ([1]; 250 mM solution in intralipid): lethal | Lethality to the animals ([1]; 1M solution in intralipid): lethal

CCOC(=O)C(CC)C(=O)OCC [diethyl ethyl malonate, Diethyl ethyl malonate]
Effect on the animals [1]: lethargic and those loss coordination

N[C@@H](Cc1c[nH]c2ccccc12)C(=O)O [Tryptophan]
responders at 12500 µM [2, 4]: 0%

C1CCc2nnnn2CC1 [Metrazol, pentylenetetrazol, reference compound]
Metrazol alone Time to Seizures (seconds), Avg. [3, 5]: 45.7 s | Metrazol alone Time to Twitch (seconds), Avg. [3, 5]: 37.3 s | Metrazol alone Time to Seizures [3, 6]: 43 seconds (2×) and 42 seconds (2×) and 59 seconds and 45 seconds and 39 seconds and 49 seconds (2×) | Metrazol alone Time to Twitch [3, 6]: 33 seconds and 36 seconds (2×) and 37 seconds and 52 seconds and 34 seconds (2×) and 31 seconds and 43 seconds

CC(C)[C@H](N)C(=O)O [L-valine, Valine]
responders at 7800 µM [2, 4]: 0% | responders at 31000 µM [2, 4]: 0% | responders at 125000 µM [2, 4]: 0% | responders at 500000 µM [2, 4]: 40%

O=C(O)[C@@H]1CCCN1 [Proline]
responders at 103000 µM [2, 4]: 0%

Fumaric acid
Movement suppressed (%) ([2]; Concentration 25 mM in aquarium water): 40% | Movement suppressed (%) ([2]; Concentration (mM) 25 + 150 EtOH): 80%

CC(=O)CCCC(=O)O [4-Acetylbutyric acid, 5-Oxohexanoic acid]
responders at 25000 µM [2, 4]: 0%

CCC(C)C(=O)C(=O)O (stereo not shown) [3-Methyl-2-oxovaleric acid, 3-Methyl-2-oxopentanoic acid]
responders at 250000 µM [2, 4]: 33%

CC(C)C(C(=O)O)C(=O)O [Isopropyl malonic acid, 2-isopropylmalonic acid]
responders at 1600 µM [2, 4]: 0% | responders at 6250 µM [2, 4]: 0% | responders at 25000 µM [2, 4]: 50%

O=C(O)C(=O)Cc1ccccc1 [Phenylpyruvic acid, 2-Oxo-3-phenylpropanoic acid]
responders at 62500 µM [2, 4]: 100% | responders at 125000 µM [2, 4]: 100%

CC(C)(O)CC(=O)O [3-Hydroxy-3-methylbutyric acid, 3-Hydroxy-3-methylbutanoic acid]
responders at 1600 µM [2, 4]: 0% | responders at 6250 µM [2, 4]: 0% | responders at 25000 µM [2, 4]: 0% | responders at 100000 µM [2, 4]: 100%

O=C(O)CCCCCCC(=O)O [Suberic acid, Octanedioic acid]
responders at 10000 µM [2, 4]: 50%

ethyl isovaleric acid
Effect on the animals [1]: lethargic and those loss coordination

Glycine
Movement suppressed (%) ([2]; Concentration (mM) 250 + 150 EtOH): 100%

CC(O)CC(=O)O (stereo not shown) [3-hydroxybutyric acid]
3-Hydroxybutyric Acid and Metrazol Time to Seizures (seconds), Avg. [3, 7]: 56.9 s | 3-Hydroxybutyric Acid and Metrazol Time to Twitch (seconds), Avg. [3, 7]: 47.5 s | 3-Hydroxybutyric Acid and Metrazol Time to Seizures [3, 8]: 61 seconds and 74 seconds and 53 seconds (3×) and 48 seconds (2×) and 65 seconds | 3-Hydroxybutyric Acid and Metrazol Time to Twitch [3, 8]: 56 s and 54 s and 49 s and 47 s and 38 s and 50 s and 45 s and 41 s | Anesthetic effect on the mouse ([1]; 0.2 mL of 1.5 M solution in water, tail vein, CD-1 mouse): became unconscious or anesthetic | Anesthetic effect on the mouse ([1]; 1 M solution in water, tail vein, CD-1 mouse): did not have any observable effect | Lethality to the mouse ([1]; 2 M solution in water, tail vein, CD-1 mouse): lethal

CC[C@H](C)[C@H](N)C(=O)O [Isoleucine]
responders at 25000 µM [2, 4]: 0%

Succinic acid
Movement suppressed (%) [2, 9]: 0% | Movement suppressed (%) ([2]; Concentration (mM) 62.5 + 200 EtOH): 66%

O=C(O)C(O)c1ccccc1 (stereo not shown) [Mandelic acid, 2-Hydroxy-2-phenylacetic acid]
responders at 250000 µM [2, 4]: 0% | responders at 300000 µM [2, 4]: 100% | responders at 500000 µM [2, 4]: 100%

CC(C)(C)CC(=O)O [3,3-Dimethylbutyric acid, 3,3-Dimethylbutanoicacid]
responders at 25000 µM [2, 4]: 100%

CCC(O)C(=O)O (stereo not shown) [2-Hydroxybutyric acid, 2-hydroxybutyric acid]
responders at 125000 µM [2, 4]: 0%

O=C(O)c1ccc2ccccc2n1 [Quinaldic acid, Quinoline-2-carboxylic acid]
responders at 25000 µM [2, 4]: 16%

Cc1cccc(C(=O)NCC(=O)O)c1 [3-Methylhippuric acid, (3-Methylbenzoyl)glycine]
responders at 3125 µM [2, 4]: 0%

C[C@H](O)CC(=O)O [S-3-hydroxybutyric acid, (S)-3-Hydroxybutanoic acid]
responders at 100000 µM [2, 4]: 0% | responders at 200000 µM [2, 4]: 0% | responders at 250000 µM [2, 4]: 14% | responders at 300000 µM [2, 4]: 17% | responders at 350000 µM [2, 4]: 50% | responders at 400000 µM [2, 4]: 92% | responders at 500000 µM [2, 4]: 100%

N=C(N)NCCC[C@H](N)C(=O)O [Arginine]
responders at 46500 µM [2, 4]: 0%

N[C@@H](CO)C(=O)O [L-Serine, Serine]
responders at 114000 µM [2, 4]: 0%

Tartaric acid [L-Tartaric acid]
Movement suppressed (%) ([2]; Concentration 50 mM in aquarium water): 0% | Movement suppressed (%) ([2]; Concentration (mM) 50 + 150 EtOH): 100%

CCC(C)CC(=O)O (stereo not shown) [3-Methylvaleric acid, 3-Methylpentanoic acid]
responders at 20000 µM [2, 4]: 25%

NC(=O)C[C@H](N)C(=O)O [L-Asparagine, Asparagine]
responders at 100000 µM [2, 4]: 0%

Cc1ccc(C(=O)NCC(=O)O)cc1 [4-Methylhippuric acid, (4-Methylbenzoyl)glycine]
responders at 50000 µM [2, 4]: 0% | responders at 150000 µM [2, 4]: 0%

CC(C)CCC(=O)O [4-Methylvaleric acid]
responders at 20000 µM [2, 4]: 0%

CCOC(=O)[C@@H](O)c1ccccc1 [ethyl (S)-(+)-mandelate]
Effect on the animals [1]: lethargic and those loss coordination | Lethality to the animals ([1]; 250 mM solution in intralipid): lethal | Lethality to the animals ([1]; 1M solution in intralipid): lethal

O=C(O)CCCCC(=O)O [Adipic acid, Hexanedioic acid]
responders at 50000 µM [2, 4]: 0%

Guanidine
Movement suppressed (%) [2, 9]: 0% | Movement suppressed (%) ([2]; Concentration (mM) 62.5 + 150 EtOH): 100%

NC(=O)CC[C@H](N)C(=O)O [Glutamine]
responders at 25000 µM [2, 4]: 0% | responders at 50000 µM [2, 4]: 100% | responders at 100000 µM [2, 4]: 100%

O=C(O)c1cc(O)c2ccccc2n1 [Kynurenic acid, 4-hydroxyquinoline-2-carboxylic acid]
responders at 12500 µM [2, 4]: 0%

O=C(O)CCCC(=O)O [Glutaric acid]
responders at 7800 µM [2, 4]: 0% | responders at 31000 µM [2, 4]: 0% | responders at 125000 µM [2, 4]: 0%

CCC(C(=O)O)C(=O)O [Ethyl Malonic Acid, 2-Ethylmalonic acid]
responders at 16000 µM [2, 4]: 0% | responders at 62500 µM [2, 4]: 0% | responders at 125000 µM [2, 4]: 100% | responders at 250000 µM [2, 4]: 100% | Anesthetic effect on the mouse ([1]; 0.2 mL of 3 M solution in water, tail vein): became unconscious | Anesthetic effect on the mouse ([1]; 0.5 mL of 4 M solution in water, subcutaneous): became sedated, anesthetized, or lose consciousness | Anesthetic effect on the mouse ([1]; 2 M solution in water, tail vein): did not have any observable effect | Lethality to the mouse ([1]; 4 M solution in water, tail vein): lethal

CC(C)(C(=O)O)C(=O)O [Dimethylmalonic acid]
responders at 125000 µM [2, 4]: 60% | responders at 250000 µM [2, 4]: 60%

O=C(O)Cc1c[nH]c2ccccc12 [Indole-3-acetic acid, 2-(1H-indol-3-yl)acetic acid]
responders at 12500 µM [2, 4]: 0%

C[C@@H](O)CC(=O)O [R-3-hydroxybutyric acid, (R)-3 -Hydroxybutanoic acid]
responders at 100000 µM [2, 4]: 0% | responders at 200000 µM [2, 4]: 0% | responders at 250000 µM [2, 4]: 0% | responders at 300000 µM [2, 4]: 0% | responders at 350000 µM [2, 4]: 0% | responders at 400000 µM [2, 4]: 46% | responders at 500000 µM [2, 4]: 100%

CCCC(=O)OCC [ethyl butyrate]
Effect on the animals [1]: lethargic and those loss coordination | Lethality to the animals ([1]; 250 mM solution in intralipid): lethal | Lethality to the animals ([1]; 1M solution in intralipid): lethal

O=C(NC(O)C(=O)O)c1ccccc1 (stereo not drawn) [Alpha-Hydroxyhippuric acid, 2-Benzamido-2-hydroxyacetic acid]
responders at 5000 µM [2, 4]: 33% | responders at 10000 µM [2, 4]: 100%

CCO [Ethanol control, Ethanol, reference compound]
responders at 100000 µM [2, 4]: 0% | responders at 150000 µM [2, 4]: 0% | responders at 200000 µM [2, 4]: 0% | responders at 250000 µM [2, 4]: 33%
